Laboratory results published in ChEMBL document CHEMBL1121594, “Adaptive least-squares method applied to structure--activity correlation of hypotensive N-alkyl-N''-cyano-N'-pyridylguanidines” (J Med Chem, 1980).

Tests used:
Assay type in all cases: organism-based
Conditions in all cases: in vivo
Rattus norvegicus [1] = test: The hypotensive activity expressed as rating of therapeutic index (1/30> MED/LD50 >=1/200).
Rattus norvegicus [2] = test: The hypotensive activity expressed as rating of therapeutic index (MED/LD50 <1/200).
Rattus norvegicus [3] = test: The hypotensive activity expressed as rating of therapeutic index (MED/LD50 >=1/30).

Row | Structure (SMILES) | TI rating (Rattus norvegicus [1]) | TI rating (Rattus norvegicus [3]) | also measured
1 | N#CN/C(=N\c1ccccc1)Nc1cccnc1 | 2 | – | –
2 | CC(C)(C)/N=C(\NC#N)Nc1cncc(Br)c1 | – | – | TI rating (Rattus norvegicus [2]): 3
3 | N#CN/C(=N\C1CCCCC1)Nc1ccccn1 | – | 1 | –
4 | N#CN/C(=N\C1CC1)Nc1cccnc1 | 2 | – | –
5 | CC(/N=C(\NC#N)Nc1ccncc1)C1CC1 (stereo not given) | 2 | – | –
6 | CCC(CC)(CC)/N=C(\NC#N)Nc1ccncc1 | – | – | TI rating (Rattus norvegicus [2]): 3
7 | CC(C)(NC(=NC#N)Nc1cccnc1)c1ccccc1 | – | 1 | –
8 | CC(C)(C)C(C)(C)/N=C(\NC#N)Nc1ccncc1 | 2 | – | –
9 | CC(C)C(C)(C)/N=C(\NC#N)Nc1cccnc1 | – | – | TI rating (Rattus norvegicus [2]): 3
10 | CCCC(C)(C)/N=C(\NC#N)Nc1cccnc1 | – | – | TI rating (Rattus norvegicus [2]): 3
11 | COc1ccc(/N=C(\NC#N)NC(C)(C)C)c(OC)n1 | – | 1 | –
12 | CC(/N=C(\NC#N)Nc1ccncc1)c1ccccc1 (stereo not given) | 2 | – | –
13 | CCC(CC)/N=C(\NC#N)Nc1ccncc1 | 2 | – | –
14 | CCC(C)C(C)/N=C(\NC#N)Nc1ccncc1 (stereo not given) | – | 1 | –
15 | N#CN/C(=N\c1cccnc1)N1CCCCC1 | 2 | – | –
16 | CCC(CC)/N=C(\NC#N)Nc1cccnc1 | – | 1 | –
17 | CC(C)/N=C(\NC#N)Nc1cccnc1 | – | – | TI rating (Rattus norvegicus [2]): 3
18 | CCC(C)(C)NC(=NC#N)Nc1cccnc1 | – | – | TI rating (Rattus norvegicus [2]): 3
19 | CCC(C)/N=C(\NC#N)Nc1cccnc1 (stereo not given) | 2 | – | –
20 | N#CN/C(=N\Cc1ccco1)Nc1cccnc1 | 2 | – | –
21 | N#CN/C(=N\C12C[C@H]3C[C@@H](C1)C[C@@H](C2)C3)Nc1cccnc1 | – | 1 | –
22 | N#CN/C(=N\C1CCCCCCC1)Nc1ccncc1 | – | 1 | –
23 | CC(C)(C)/N=C(\NC#N)Nc1ccccn1 | – | 1 | –
24 | N#CN/C(=N\CC1CCCO1)Nc1cccnc1 (stereo not given) | – | 1 | –
25 | CCOCC/N=C(\NC#N)Nc1cccnc1 | – | 1 | –

Row | Structure (SMILES) | TI rating (Rattus norvegicus [1]) | TI rating (Rattus norvegicus [3]) | also measured
26 | CCC(/N=C(\NC#N)Nc1ccncc1)C(C)C (stereo not given) | 2 | – | –
27 | CC(C)(C)/N=C(\NC#N)Nc1ccc(Cl)cn1 | – | 1 | –
28 | CC(C)(C)/N=C(\NC#N)Nc1ccc(Cl)nc1Cl | – | 1 | –
29 | N#CN/C(=N\CCc1ccccc1)Nc1cccnc1 | – | 1 | –
30 | CCC(C)(C)/N=C(\NC#N)Nc1c(C)cc(C)nc1C | – | 1 | –
31 | CCCCCCC/N=C(\NC#N)Nc1cccnc1 | – | 1 | –
32 | N#CN/C(=N\Cc1ccccc1)Nc1cccnc1 | 2 | – | –
33 | CC(C)CC(C)/N=C(\NC#N)Nc1ccncc1 (stereo not given) | – | 1 | –
34 | N#CN/C(=N\c1ccccc1)Nc1ccncc1 | – | 1 | –
35 | CCC(C)(CC)/N=C(\NC#N)Nc1ccncc1 | – | – | TI rating (Rattus norvegicus [2]): 3
36 | CCC(C)(C)/N=C(\NC#N)Nc1ccncc1 | – | – | TI rating (Rattus norvegicus [2]): 3
37 | COc1ccc(N/C(=N/C(C)(C)C)NC#N)cn1 | – | 1 | –
38 | CC(C)CC(C)(C)/N=C(\NC#N)Nc1ccncc1 | 2 | – | –
39 | CC(C)(C)C/N=C(\NC#N)Nc1ccncc1 | 2 | – | –
40 | CC(C)(C)CC(C)(C)/N=C(\NC#N)Nc1cccnc1 | – | 1 | –
41 | CCC(C)(CC)/N=C(\NC#N)Nc1cccnc1 | – | – | TI rating (Rattus norvegicus [2]): 3
42 | CCCCC(CC)C/N=C(\NC#N)Nc1cccnc1 (stereo not given) | – | 1 | –
43 | CCCCC/N=C(\NC#N)Nc1cccnc1 | 2 | – | –
44 | CCCC/N=C(\NC#N)Nc1cccnc1 | 2 | – | –
45 | CC(C)(C)/N=C(/NC#N)Nc1cccnc1 | – | – | TI rating (Rattus norvegicus [2]): 3
46 | CC(C)C(C)(C)/N=C(\NC#N)Nc1ccncc1 | 2 | – | –
47 | CC(C)(C)C(C)(C)/N=C(\NC#N)Nc1cccnc1 | – | 1 | –
48 | N#CN/C(=N\C1CCCC1)Nc1cccnc1 | 2 | – | –
49 | CC(C)C(/N=C(\NC#N)Nc1cccnc1)C(C)C | – | – | TI rating (Rattus norvegicus [2]): 3
50 | CCC(CC)(CC)/N=C(\NC#N)Nc1cccnc1 | – | – | TI rating (Rattus norvegicus [2]): 3

Row | Structure (SMILES) | TI rating (Rattus norvegicus [1]) | TI rating (Rattus norvegicus [3]) | also measured
51 | C/N=C(\NC#N)Nc1cccnc1 | – | 1 | –
52 | N#CN/C(=N\C1CCCCC1)Nc1cccnc1 | 2 | – | –
53 | CC(C)(C)CC(C)(C)/N=C(\NC#N)Nc1ccncc1 | – | 1 | –
54 | CC(C)CCC(C)/N=C(\NC#N)Nc1ccncc1 (stereo not given) | – | 1 | –
55 | C=C(C)C/N=C(\NC#N)Nc1cccnc1 | 2 | – | –
56 | N#CNC(=N)Nc1cccnc1 | – | 1 | –
57 | CC1(/N=C(\NC#N)Nc2cccnc2)CCC1 | – | 1 | –
58 | N#CN/C(=N\CCc1ccccc1)Nc1ccncc1 | 2 | – | –
59 | CCC/N=C(\NC#N)Nc1cccnc1 | 2 | – | –
60 | CC(C)(C)C/N=C(/NC#N)Nc1cccnc1 | – | – | TI rating (Rattus norvegicus [2]): 3
61 | CC(C)(C)/N=C(\NC#N)Nc1ccncc1 | – | – | TI rating (Rattus norvegicus [2]): 3
62 | N#CN/C(=N\C1CCCCC1)Nc1ccncc1 | – | 1 | –
63 | CC(C)CC/N=C(\NC#N)Nc1cccnc1 | 2 | – | –
64 | CC(C)CC(C)(C)/N=C(\NC#N)Nc1cccnc1 | – | – | TI rating (Rattus norvegicus [2]): 3
65 | Cc1cc(C)c(/N=C(\NC#N)NC(C)(C)C)c(C)n1 | – | 1 | –
66 | Cc1cc(C)nc(N/C(=N/C(C)(C)C)NC#N)c1 | – | 1 | –
67 | CC(/N=C(/NC#N)Nc1cccnc1)C(C)(C)C (stereo not given) | – | – | TI rating (Rattus norvegicus [2]): 3
68 | N#CN/C(=N\Cc1ccccc1)Nc1ccncc1 | 2 | – | –
69 | N#CN/C(=N\C(C1CC1)C1CC1)Nc1ccncc1 | 2 | – | –
70 | Cc1cccc(C)c1/N=C(\NC#N)Nc1cccnc1 | – | 1 | –
71 | CC(C)(C)/N=C(\NC#N)Nc1cccnc1Cl | – | – | TI rating (Rattus norvegicus [2]): 3
72 | CC(C)C(/N=C(\NC#N)Nc1ccncc1)C(C)C | – | 1 | –
73 | N#CN/C(=N\C12C[C@H]3C[C@@H](C1)C[C@@H](C2)C3)Nc1ccncc1 | – | – | TI rating (Rattus norvegicus [2]): 3
74 | CCN(CC)CC/N=C(\NC#N)Nc1cccnc1 | – | 1 | –
75 | CC(C)C/N=C(\NC#N)Nc1cccnc1 | 2 | – | –
